# Results taken from PubChem BioAssay (NCI).
#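 Dose response: 5 concentrations. Exposure: 48 h. Format: 96-well plates. Endpoint: linear interpolation; highest concentration if not reached. At the GI50, growth is halved. TGI: concentration producing complete growth inhibition.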
# Assays:
# Test in all cases: NCI anticancer screen, dose series, 48 h
# 786-0 renal = system: 786-0 renal
# A498 renal = system: A498 renal
# A549 NSCLC = system: A549 NSCLC
# ACHN renal = system: ACHN renal
# BT-549 breast = system: BT-549 breast
# CAKI-1 renal = system: CAKI-1 renal
# CCRF-CEM leukemia = system: CCRF-CEM leukemia
# COLO 205 colon = system: COLO 205 colon
# DU-145 prostate = system: DU-145 prostate
# EKVX NSCLC = system: EKVX NSCLC
# HCC-2998 colon = system: HCC-2998 colon
# HCT-116 colon = system: HCT-116 colon
# HCT-15 colon = system: HCT-15 colon
# HL-60(TB) leukemia = system: HL-60(TB) leukemia
# HOP-62 NSCLC = system: HOP-62 NSCLC
# HS 578T breast = system: HS 578T breast
# HT29 colon = system: HT29 colon
# IGROV1 ovarian = system: IGROV1 ovarian
# K-562 leukemia = system: K-562 leukemia
# KM12 colon = system: KM12 colon
# LOX IMVI melanoma = system: LOX IMVI melanoma
# M14 melanoma = system: M14 melanoma
# MALME-3M melanoma = system: MALME-3M melanoma
# MDA-MB-231 breast = system: MDA-MB-231 breast
# MDA-MB-435 = system: MDA-MB-435
# NCI-H226 lung = system: NCI-H226 lung
# NCI-H23 lung = system: NCI-H23 lung
# NCI-H522 lung = system: NCI-H522 lung
# NCI/ADR-RES ovarian = system: NCI/ADR-RES ovarian
# OVCAR-3 ovarian = system: OVCAR-3 ovarian
# OVCAR-4 ovarian = system: OVCAR-4 ovarian
# OVCAR-5 ovarian = system: OVCAR-5 ovarian
# OVCAR-8 ovarian = system: OVCAR-8 ovarian
# PC-3 prostate = system: PC-3 prostate
# RPMI-8226 leukemia = system: RPMI-8226 leukemia
# RXF 393 renal = system: RXF 393 renal
# SF-295 CNS = system: SF-295 CNS
# SF-539 CNS = system: SF-539 CNS
# SK-MEL-2 melanoma = system: SK-MEL-2 melanoma
# SK-MEL-28 melanoma = system: SK-MEL-28 melanoma
# SK-MEL-5 melanoma = system: SK-MEL-5 melanoma
# SK-OV-3 ovarian = system: SK-OV-3 ovarian
# SN12C renal = system: SN12C renal
# SNB-75 CNS = system: SNB-75 CNS
# SR leukemia = system: SR leukemia
# SW-620 colon = system: SW-620 colon
# T-47D breast = system: T-47D breast
# TK-10 renal = system: TK-10 renal
# U251 CNS = system: U251 CNS
# UACC-257 melanoma = system: UACC-257 melanoma
# UACC-62 melanoma = system: UACC-62 melanoma
# UO-31 renal = system: UO-31 renal
# HOP-92 NSCLC = system: HOP-92 NSCLC
# NCI-H460 lung = system: NCI-H460 lung
smiles,measurement,setting,value
C=CCC(N[C@H](CO)c1ccccc1)c1ccccn1 (stereo not given in full),GI50,786-0 renal,> 100 µM
same,TGI,786-0 renal,> 100 µM
same,GI50,A498 renal,> 100 µM
same,TGI,A498 renal,> 100 µM
same,GI50,A549 NSCLC,> 100 µM
same,TGI,A549 NSCLC,> 100 µM
same,GI50,ACHN renal,> 100 µM
same,TGI,ACHN renal,> 100 µM
same,GI50,BT-549 breast,> 100 µM
same,TGI,BT-549 breast,> 100 µM
same,GI50,CAKI-1 renal,> 100 µM
same,TGI,CAKI-1 renal,> 100 µM
same,GI50,CCRF-CEM leukemia,> 100 µM
same,TGI,CCRF-CEM leukemia,> 100 µM
same,GI50,COLO 205 colon,> 100 µM
same,TGI,COLO 205 colon,> 100 µM
same,GI50,DU-145 prostate,> 100 µM
same,TGI,DU-145 prostate,> 100 µM
same,GI50,EKVX NSCLC,> 100 µM
same,TGI,EKVX NSCLC,> 100 µM
same,GI50,HCC-2998 colon,> 100 µM
same,TGI,HCC-2998 colon,> 100 µM
same,GI50,HCT-116 colon,> 100 µM
same,TGI,HCT-116 colon,> 100 µM
same,GI50,HCT-15 colon,> 100 µM
same,TGI,HCT-15 colon,> 100 µM
same,GI50,HL-60(TB) leukemia,38.6 µM
same,TGI,HL-60(TB) leukemia,> 100 µM
same,GI50,HOP-62 NSCLC,> 100 µM
same,TGI,HOP-62 NSCLC,> 100 µM
same,GI50,HS 578T breast,> 100 µM
same,TGI,HS 578T breast,> 100 µM
same,GI50,HT29 colon,> 100 µM
same,TGI,HT29 colon,> 100 µM
same,GI50,IGROV1 ovarian,88.2 µM
same,TGI,IGROV1 ovarian,> 100 µM
same,GI50,K-562 leukemia,> 100 µM
same,TGI,K-562 leukemia,> 100 µM
same,GI50,KM12 colon,> 100 µM
same,TGI,KM12 colon,> 100 µM
same,GI50,LOX IMVI melanoma,> 100 µM
same,TGI,LOX IMVI melanoma,> 100 µM
same,GI50,M14 melanoma,> 100 µM
same,TGI,M14 melanoma,> 100 µM
same,GI50,MALME-3M melanoma,> 100 µM
same,TGI,MALME-3M melanoma,> 100 µM
same,GI50,MDA-MB-231 breast,> 100 µM
same,TGI,MDA-MB-231 breast,> 100 µM
same,GI50,MDA-MB-435,> 100 µM
same,TGI,MDA-MB-435,> 100 µM
same,GI50,NCI-H226 lung,> 100 µM
same,TGI,NCI-H226 lung,> 100 µM
same,GI50,NCI-H23 lung,> 100 µM
same,TGI,NCI-H23 lung,> 100 µM
same,GI50,NCI-H522 lung,> 100 µM
same,TGI,NCI-H522 lung,> 100 µM
same,GI50,NCI/ADR-RES ovarian,> 100 µM
same,TGI,NCI/ADR-RES ovarian,> 100 µM
same,GI50,OVCAR-3 ovarian,> 100 µM
same,TGI,OVCAR-3 ovarian,> 100 µM
same,GI50,OVCAR-4 ovarian,> 100 µM
same,TGI,OVCAR-4 ovarian,> 100 µM
same,GI50,OVCAR-5 ovarian,> 100 µM
same,TGI,OVCAR-5 ovarian,> 100 µM
same,GI50,OVCAR-8 ovarian,> 100 µM
same,TGI,OVCAR-8 ovarian,> 100 µM
same,GI50,PC-3 prostate,> 100 µM
same,TGI,PC-3 prostate,> 100 µM
same,GI50,RPMI-8226 leukemia,> 100 µM
same,TGI,RPMI-8226 leukemia,> 100 µM
same,GI50,RXF 393 renal,> 100 µM
same,TGI,RXF 393 renal,> 100 µM
same,GI50,SF-295 CNS,> 100 µM
same,TGI,SF-295 CNS,> 100 µM
same,GI50,SF-539 CNS,> 100 µM
same,TGI,SF-539 CNS,> 100 µM
same,GI50,SK-MEL-2 melanoma,> 100 µM
same,TGI,SK-MEL-2 melanoma,> 100 µM
same,GI50,SK-MEL-28 melanoma,> 100 µM
same,TGI,SK-MEL-28 melanoma,> 100 µM
same,GI50,SK-MEL-5 melanoma,> 100 µM
same,TGI,SK-MEL-5 melanoma,> 100 µM
same,GI50,SK-OV-3 ovarian,> 100 µM
same,TGI,SK-OV-3 ovarian,> 100 µM
same,GI50,SN12C renal,> 100 µM
same,TGI,SN12C renal,> 100 µM
same,GI50,SNB-75 CNS,> 100 µM
same,TGI,SNB-75 CNS,> 100 µM
same,GI50,SR leukemia,> 100 µM
same,TGI,SR leukemia,> 100 µM
same,GI50,SW-620 colon,> 100 µM
same,TGI,SW-620 colon,> 100 µM
same,GI50,T-47D breast,> 100 µM
same,TGI,T-47D breast,> 100 µM
same,GI50,TK-10 renal,> 100 µM
same,TGI,TK-10 renal,> 100 µM
same,GI50,U251 CNS,> 100 µM
same,TGI,U251 CNS,> 100 µM
same,GI50,UACC-257 melanoma,> 100 µM
same,TGI,UACC-257 melanoma,> 100 µM
same,GI50,UACC-62 melanoma,> 100 µM
same,TGI,UACC-62 melanoma,> 100 µM
same,GI50,UO-31 renal,> 100 µM
same,TGI,UO-31 renal,> 100 µM
COc1ccc2c(CCCc3ccc(Cl)cc3Cl)c3[n+](cc2c1OC)CCc1cc2c(cc1-3)OCO2,GI50,786-0 renal,1.27 µM
same,TGI,786-0 renal,2.74 µM
same,GI50,A498 renal,1.76 µM
same,TGI,A498 renal,9 µM
same,GI50,ACHN renal,1.44 µM
same,TGI,ACHN renal,3.15 µM
same,GI50,BT-549 breast,0.365 µM
same,TGI,BT-549 breast,1.4 µM
same,GI50,CAKI-1 renal,5.1 µM
same,TGI,CAKI-1 renal,23.7 µM
same,GI50,DU-145 prostate,0.639 µM
same,TGI,DU-145 prostate,1.96 µM
same,GI50,EKVX NSCLC,0.467 µM
same,TGI,EKVX NSCLC,1.99 µM
same,GI50,HCC-2998 colon,0.638 µM
same,TGI,HCC-2998 colon,1.95 µM
same,GI50,HCT-15 colon,1.72 µM
same,TGI,HCT-15 colon,3.29 µM
same,GI50,HL-60(TB) leukemia,0.23 µM
same,TGI,HL-60(TB) leukemia,0.838 µM
same,GI50,HOP-92 NSCLC,0.228 µM
same,TGI,HOP-92 NSCLC,1.14 µM
same,GI50,KM12 colon,0.362 µM
same,TGI,KM12 colon,1.48 µM
same,GI50,LOX IMVI melanoma,0.37 µM
same,TGI,LOX IMVI melanoma,1.44 µM
same,GI50,M14 melanoma,0.485 µM
same,TGI,M14 melanoma,1.88 µM
same,GI50,MDA-MB-435,0.322 µM
same,TGI,MDA-MB-435,1.31 µM
same,GI50,NCI-H23 lung,0.327 µM
same,TGI,NCI-H23 lung,1.42 µM
same,GI50,NCI-H460 lung,0.343 µM
same,TGI,NCI-H460 lung,1.32 µM
same,GI50,NCI/ADR-RES ovarian,7.74 µM
same,TGI,NCI/ADR-RES ovarian,54.2 µM
same,GI50,OVCAR-4 ovarian,0.337 µM
same,TGI,OVCAR-4 ovarian,1.59 µM
same,GI50,OVCAR-5 ovarian,1.13 µM
same,TGI,OVCAR-5 ovarian,2.62 µM
same,GI50,PC-3 prostate,0.279 µM
same,TGI,PC-3 prostate,1.24 µM
same,GI50,SK-MEL-28 melanoma,0.492 µM
same,TGI,SK-MEL-28 melanoma,1.83 µM
same,GI50,SK-MEL-5 melanoma,0.212 µM
same,TGI,SK-MEL-5 melanoma,0.561 µM
same,GI50,SK-OV-3 ovarian,0.873 µM
same,TGI,SK-OV-3 ovarian,2.2 µM
same,GI50,SW-620 colon,0.383 µM
same,TGI,SW-620 colon,1.58 µM
same,GI50,T-47D breast,0.325 µM
same,TGI,T-47D breast,1.84 µM
same,GI50,UACC-62 melanoma,0.284 µM
same,TGI,UACC-62 melanoma,1.38 µM
same,GI50,UO-31 renal,1.58 µM
same,TGI,UO-31 renal,3.08 µM
